Patent publication US7855230B2, “Derivatives of 3,3-diphenylpropylamines” (UCB Pharma GmbH, priority 1999, dated 2010)

Assays:
guinea-pig ileum = assay: Anticholinergic activity in guinea-pig ileum (methacholine-induced contractile response); type: cell-based; conditions: Cavia porcellus; methacholine 0.6 μM, Krebs solution pH 7.4, 32° C.
Description: The compounds were tested for their anticholinergic activity in a standard tissue assay, the guinea-pig ileum. A segment of ileum was obtained from Duncan Hartley guinea-pigs which were scarified by cervical dislocation. The tissue was placed under 1 g tension in a 10 ml bath containing Krebs, solution (pH 7.4, 32° C.) and the concentration-dependent ability of different compounds to reduce the methacholine-induced (0.6 μM) contractile response was recorded.

[1] = biological target: T1, human muscarinic M3 receptor (Homo sapiens, UniProt P20309); assay: [3H]-methylscopolamine binding to recombinant human M3 receptors; conditions: BSR-M3H cell membranes, 60 minutes at 25° C.
T1 construct: expressed in transfected cells; host or cells: BSR-M3H cells (membrane preparation)
Description: WO 94/11337 discloses that the active metabolite has high affinity to muscarinic receptors in the guinea-pig bladder. Different compounds of the present invention were tested in a well established standardized assay, measuring the binding of [^3H]-methylscopolamine to recombinant human M3 receptors. BSR-M3H cells transfected with a plasmid encoding the human muscarinic M3 receptor were used to prepare membranes in modified Tris-HCl pH 7.4 buffer using standard techniques. An aliquot of the membrane preparation was incubated with [^3H]-methylscopolamine in the presence or absence of different concentrations of several compounds of the invention for 60 minutes at 25° C. Nonspecific binding was estimated in the presence of 1 μM atropine. Membranes were filtered and washed three times and the filters were counted to determine the amount of [^3H]-methylscopolamine specifically bound.

[2] = Incubation of labelled substrates: metabolic degradation to the carboxylic acid; type: in vitro ADME, human; conditions: 3 hrs at 37.0° C., 40 μM; compared with unlabelled hydroxy metabolite
Description: The metabolic degradation of the unlabelled hydroxy metabolite (i.e. Intermediate D) and the deuteriated hydroxy-metabolite (Intermediate d2B) were compared in vitro. Used were the respective enantiomers and the racemates.
The hydroxy metabolite and the deuteriated hydroxy-metabolite expressed significant differences in the rate to produce the corresponding carboxylic acid.
The measurement was performed with an incubation time of 3 hrs at 37.0° C. in a concentration of 40 μM.

[3] = Penetration through human skin, flow through cell; type: in vitro ADME; conditions: human skin 200 μm thick, 32° C., acceptor phosphate buffer pH 6.2
Description: Different compounds of the invention were tested for their ability to penetrate the human skin (200 μm thick) in the “Flow through cell” at 32° C. according to Tiemessen et al. (Acta Pharm. Technol. 1998; 34:99-101). Phosphate buffer (pH 6.2) was used as the acceptor medium. Samples were drawn at different time points and analysed by RP-HPLC with UV detection (220 nm). Permeation profiles were plotted and mean flux rates of different substances were calculated by linear regression analysis.

[4] = test system: urinary bladder over the effect on the salivation; conditions: preclinical, Nilvebrant et al. 1997; cited from earlier work

T1 sequence (P20309 whole entry): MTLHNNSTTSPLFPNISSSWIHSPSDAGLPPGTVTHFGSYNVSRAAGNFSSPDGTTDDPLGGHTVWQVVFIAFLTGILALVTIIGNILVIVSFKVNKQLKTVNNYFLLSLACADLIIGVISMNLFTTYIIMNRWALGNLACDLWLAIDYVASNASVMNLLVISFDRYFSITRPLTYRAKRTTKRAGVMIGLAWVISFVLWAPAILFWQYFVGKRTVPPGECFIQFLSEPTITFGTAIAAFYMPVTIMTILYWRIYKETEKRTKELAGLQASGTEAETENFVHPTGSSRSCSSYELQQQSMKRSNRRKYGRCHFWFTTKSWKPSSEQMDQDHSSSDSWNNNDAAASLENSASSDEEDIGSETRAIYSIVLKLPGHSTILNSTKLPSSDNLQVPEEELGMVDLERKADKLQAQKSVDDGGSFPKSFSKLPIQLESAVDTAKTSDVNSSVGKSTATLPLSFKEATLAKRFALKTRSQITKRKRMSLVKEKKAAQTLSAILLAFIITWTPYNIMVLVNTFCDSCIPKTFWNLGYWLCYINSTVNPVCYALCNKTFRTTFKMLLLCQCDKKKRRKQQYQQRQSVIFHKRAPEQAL

`CC(C)N(CC[C@@H](c1ccccc1)c1cc(CO)ccc1O)C(C)C` [(−)HO-/-OH, S-(−)-2-(3-Diisopropylamino-1-phenylpropyl)-4-hydroxymethyl-phenol, reference compound] showed an IC50 (guinea-pig ileum) of 680 nM and an IC50 [1] of 1300 nM.

With `[2H]C([2H])(O)c1ccc(O)c(C(CCN(C(C)C)C(C)C)c2ccccc2)c1` (racemic) [deuteriated hydroxy-metabolite, (±)-2-(3-Diisopropylamino-1-phenylpropyl)-4-hydroxy-[^2H2]methyl-phenol] the “decreased velocity of formation of the carboxylic acid” value [2] was 10%.

In the case of `CC(C)N(CC[C@H](c1ccccc1)c1cc(CO)ccc1O)C(C)C` [(+)HO-/-OH, R-(+)-2-(3-Diisopropylamino-1-phenylpropyl)-4-hydroxymethyl-phenol, reference compound], the IC50 (guinea-pig ileum) is reported as 20 nM and the IC50 [1] is reported as 8.7 nM.

`CCC(=O)OCc1ccc(OC(=O)CC)c(C(CCN(C(C)C)C(C)C)c2ccccc2)c1` (racemic) [PropO-/-OProp, (±)-Propionic acid 2-(3-diisopropylamino-1-phenylpropyl)-4-propionyloxymethylphenyl ester] showed a Flux rate [3] of 70 μg/cm^2/24 hrs.

In the case of `Cc1ccc(O)c([C@H](CCN(C(C)C)C(C)C)c2ccccc2)c1` [tolterodine, Tolterodine], the “tissue selectivity in vivo for the urinary bladder over the effect on the salivation” value [4] is given as “favourable tissue selectivity”.

Work on `CC(=O)OCc1ccc(OC(=O)C(C)C)c([C@H](CCN(C(C)C)C(C)C)c2ccccc2)c1` [(+)AcO-/-OiBut, R-(+)-isobutyric acid 4-acetoxymethyl-2-(3-diisopropylamino-1-phenylpropyl)-phenyl ester] yielded an IC50 (guinea-pig ileum) of 240 nM.

Work on `CC(C)C(=O)Oc1ccc(CO)cc1[C@H](CCN(C(C)C)C(C)C)c1ccccc1` [(+)HO-/-OiBut, R-(+)-Isobutyric acid 2-(3-diisopropylamino-1-phenylpropyl)-4-hydroxymethylphenyl ester] yielded an IC50 (guinea-pig ileum) of 57 nM and an IC50 [1] of 159 nM.

For `CC(C)N(CC[C@H](c1ccccc1)c1cc(COC(=O)c2ccccc2)ccc1OC(=O)c1ccccc1)C(C)C` [(+)BzO-/-OBz, R-(+)-benzoic acid 4-benzoyloxymethyl-2-(3-diisopropylamino-1-phenylpropyl)-phenyl ester], the IC50 (guinea-pig ileum) was 220 nM.

With `CC(C)N(CC[C@H](c1ccccc1)c1cc(CO)ccc1OC(=O)c1ccccc1)C(C)C` [(+)HO-/-OBz, R-(+)-Benzoic acid 2-(3-diisopropylamino-1-phenylpropyl)-4-hydroxymethylphenyl ester] the IC50 (guinea-pig ileum) was 180 nM and the IC50 [1] was 172 nM.

`CC(C)C(=O)OCc1ccc(OC(=O)C(C)C)c(C(CCN(C(C)C)C(C)C)c2ccccc2)c1` (racemic) [iButO-/-OiBut, (±)-Isobutyric acid 2-(3-diisopropylamino-1-phenylpropyl)-4-isobutyryloxymethylphenyl ester] gave a Flux rate [3] of 60 μg/cm^2/24 hrs.

With `CC(C)N(CCC(c1ccccc1)c1cc(COC(=O)c2ccccc2)ccc1OC(=O)c1ccccc1)C(C)C` (racemic) [BzO-/-OBz, (±)-Benzoic acid 4-benzoyloxymethyl-2-(3-diisopropylamino-1-phenylpropyl)-phenyl ester] the IC50 [1] was 2400 nM.

`CC(=O)OCc1ccc(OC(=O)C(C)C)c(C(CCN(C(C)C)C(C)C)c2ccccc2)c1` (racemic) [AcO-/-OiBut, (±)-Isobutyric acid 4-acetoxymethyl-2-(3-diisopropylamino-1-phenylpropyl)-phenyl ester] showed an IC50 [1] of 3600 nM.

In the case of `CCN(CC)CC#CCOC(=O)C(O)(c1ccccc1)C1CCCCC1` (centres unmarked) [oxybutynin], the “tissue selectivity in vivo for the urinary bladder over the effect on the salivation” value [4] is given as “reversed selectivity”.

With `CC(=O)OCc1ccc(OC(=O)c2ccccc2)c(C(CCN(C(C)C)C(C)C)c2ccccc2)c1` (racemic) [AcO-/-OBz, (±)-Benzoic acid 2-(3-diisopropylamino-1-phenylpropyl)-4-acetoxymethylphenyl ester] the IC50 [1] was 5400 nM.

Compound `CC(C)C(=O)Oc1ccc(CO)cc1C(CCN(C(C)C)C(C)C)c1ccccc1` (racemic) [HO-/-OiBut, (±)-Isobutyric acid 2-(3-diisopropylamino-1-phenylpropyl)-4-hydroxymethylphenyl ester] has a Flux rate [3] of 150 μg/cm^2/24 hrs.

Work on `CC(C)N(CCC(c1ccccc1)c1cc(CO)ccc1O)C(C)C` (racemic) [HO-/-OH, (±)-2-(3-Diisopropylamino-1-phenylpropyl)-4-hydroxymethylphenol, reference compound] yielded a Flux rate [3] of 3 μg/cm^2/24 hrs.
